From US10766869B2, “Triazoles for the treatment of demyelinating dieases” (Vertex Pharmaceuticals Incorporated, priority 2015, dated 2020)

Test system: primary rat mixed cortical cells
Experiment: In vitro myelination assay (MBP positive myelin strands, fold myelin pixels above background)
Assay type: cell-based
Conditions: Rattus norvegicus, relative to baseline of no added compound; for fold induction at 1 µM: 1.0 μM compound, read-out: Fold myelin pixels above background, 1.0 μM; for fold induction at 10 µM: 10.0 μM compound, read-out: Fold myelin pixels above background, 10.0 μM
Procedure, shortened: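 Mixed cortical culture, P1 rat, 87,500-95,000 cells/well; compound present from seeding, refreshed days 6 and 10; 14 d, 37 °C, 5% CO2. Day 14: PFA fix, anti-MBP + Hoechst. Read-out: fold MBP myelin pixels over untreated, tested at 1.0 and 10.0 μM.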

Q: Which fold induction at 1 µM does the source give for `Cc1cc(Nc2ncn(-c3ccc(F)c(F)c3)n2)cc(N2CCOCC2)n1` [Compound 265, N-[1-(3,4-difluorophenyl)-1,2,4-triazol-3-yl]-2-methyl-6-morpholino-pyridin-4-amine] here?
A: 100 to 1000

Q: What about the fold induction at 10 µM of the same compound?
A: 100 to 1000

Q: Which fold induction at 1 µM does the source give for `CC(=O)N1CCCC(c2cc(C)cc(Nc3ncn(-c4cc(F)cc(F)c4)n3)c2)C1` (stereo not shown) [Compound 266, 1-[3-[3-[[1-(3,5-difluorophenyl)-1,2,4-triazol-3-yl]amino]-5-methyl-phenyl]-1-piperidyl]ethanone] here?
A: 10 to 100

Q: What about the fold induction at 10 µM of the same compound?
A: 100 to 1000

Q: For `CNC1CCN(c2cc(C)cc(Nc3ncn(-c4cc(F)cc(F)c4)n3)c2)C1` (stereo not shown) [Compound 267, 1-(3,5-difluorophenyl)-N-[3-methyl-5-[3-(methylamino)pyrrolidin-1-yl]phenyl]-1,2,4-triazol-3-amine], which fold induction at 1 µM is on record?
A: 10 to 100

Q: What about the fold induction at 10 µM of the same compound?
A: ≤ 1

Q: For `Fc1cc(Nc2ncn(-c3cc(F)cc(F)c3)n2)cc(C2CCN(C3COC3)C2)c1` (stereo not shown) [Compound 268, 1-(3,5-difluorophenyl)-N-[3-fluoro-5-[1-(oxetan-3-yl)pyrrolidin-3-yl]phenyl]-1,2,4-triazol-3-amine], which fold induction at 1 µM is on record?
A: 100 to 1000

Q: And the fold induction at 10 µM?
A: 1000 to 10000

Q: `Cc1cc(Nc2ncn(-c3ccc(F)cc3)n2)cc(N2CCCC2)c1` [Compound 269, 1-(4-fluorophenyl)-N-(3-methyl-5-pyrrolidin-1-yl-phenyl)-1,2,4-triazol-3-amine] was tested. Which fold induction at 1 µM did it give?
A: 1 to 10

Q: And the fold induction at 10 µM?
A: 10 to 100

Q: `Cc1cc(Nc2ncn(-c3cccnc3)n2)cc(C2COC2)c1` [Compound 270, N-[3-methyl-5-(oxetan-3-yl)phenyl]-1-(3-pyridyl)-1,2,4-triazol-3-amine] was tested. Which fold induction at 1 µM did it give?
A: 100 to 1000

Q: And the fold induction at 10 µM?
A: 100 to 1000

Q: `Cc1cc(Nc2ncn(-c3cncc(C)n3)n2)cc(N2CCN(C3COC3)CC2)c1` [Compound 271, N-[3-methyl-5-[4-(oxetan-3-yl)piperazin-1-yl]phenyl]-1-(6-methylpyrazin-2-yl)-1,2,4-triazol-3-amine] was tested. Which fold induction at 1 µM did it give?
A: ≤ 1

Q: And the fold induction at 10 µM?
A: ≤ 1

Q: For `Cc1cc(Nc2ncn(-c3cccc(F)c3)n2)cc(N2CCCC2)c1` [Compound 272, 1-(3-fluorophenyl)-N-(3-methyl-5-pyrrolidin-1-yl-phenyl)-1,2,4-triazol-3-amine], which fold induction at 1 µM is on record?
A: 10 to 100

Q: And the fold induction at 10 µM?
A: ≤ 1

Q: For `Cc1cc(Nc2ncn(-c3ccccc3)n2)cc(C2CCN(CC(F)F)C2)c1` (stereo not shown) [Compound 273, N-[3-[1-(2,2-difluoroethyl)pyrrolidin-3-yl]-5-methyl-phenyl]-1-phenyl-1,2,4-triazol-3-amine], which fold induction at 1 µM is on record?
A: 1000 to 10000

Q: What about the fold induction at 10 µM of the same compound?
A: ≤ 1

Q: How did the fold induction at 1 µM turn out when `CCN1CCN(c2cc(C)cc(Nc3ncn(-c4ccccc4)n3)c2)CC1` [Compound 274, N-[3-(4-ethylpiperazin-1-yl)-5-methyl-phenyl]-1-phenyl-1,2,4-triazol-3-amine] was run?
A: 1000 to 10000

Q: And the fold induction at 10 µM?
A: 1 to 10

Q: For `Cc1cc(Nc2ncn(-c3cccnc3)n2)cc(N2CCN(C3COC3)CC2)c1` [Compound 275, N-[3-methyl-5-[4-(oxetan-3-yl)piperazin-1-yl]phenyl]-1-(3-pyridyl)-1,2,4-triazol-3-amine], which fold induction at 1 µM is on record?
A: 10 to 100

Q: What about the fold induction at 10 µM of the same compound?
A: 100 to 1000

Q: What does the source list for `CCc1cc(Nc2ncn(-c3cccc(F)c3F)n2)cc(N2CCN(C3COC3)CC2)c1` [Compound 276, 1-(2,3-difluorophenyl)-N-[3-ethyl-5-[4-(oxetan-3-yl)piperazin-1-yl]phenyl]-1,2,4-triazol-3-amine]?
A: fold induction at 1 µM: ≤ 1; fold induction at 10 µM: 1 to 10

Q: `COc1nccc(-n2cnc(Nc3cc(C4CC4)cc(N4CCN(C5COC5)CC4)c3)n2)n1` [Compound 277, N-[3-cyclopropyl-5-[4-(oxetan-3-yl)piperazin-1-yl]phenyl]-1-(2-methoxypyrimidin-4-yl)-1,2,4-triazol-3-amine] was tested. Which fold induction at 1 µM did it give?
A: 10 to 100

Q: What about the fold induction at 10 µM of the same compound?
A: 100 to 1000

Q: `Cc1cc(Nc2ncn(-c3ccc(F)c(F)c3)n2)cc(NC2CCN(C3COC3)CC2)c1` [Compound 278, N3-[1-(3,4-difluorophenyl)-1,2,4-triazol-3-yl]-5-methyl-N1-[1-(oxetan-3-yl)-4-piperidyl]benzene-1,3-diamine] was tested. Which fold induction at 1 µM did it give?
A: 100 to 1000

Q: And the fold induction at 10 µM?
A: 1 to 10

Q: `Cc1cc(Nc2ncn(-c3cc(F)cc(F)c3)n2)cc(N2CCC3(CC2)COC3)c1` [Compound 279, 1-(3,5-difluorophenyl)-N-[3-methyl-5-(2-oxa-7-azaspiro[3.5]nonan-7-yl)phenyl]-1,2,4-triazol-3-amine] was tested. Which fold induction at 1 µM did it give?
A: 100 to 1000

Q: What about the fold induction at 10 µM of the same compound?
A: 100 to 1000

Q: Which results are given for `CC(=O)N1CCCN(c2cc(C)cc(Nc3ncn(-c4ccccc4)n3)c2)CC1` [Compound 280, 1-[4-[3-methyl-5-[(1-phenyl-1,2,4-triazol-3-yl)amino]phenyl]-1,4-diazepan-1-yl]ethanone]?
A: fold induction at 1 µM: 1000 to 10000; fold induction at 10 µM: 10 to 100

Q: Which fold induction at 1 µM does the source give for `Cc1cc(Nc2ncn(-c3cccc(C#N)c3)n2)cc(N2CCCC2)c1` [Compound 281, 3-[3-(3-methyl-5-pyrrolidin-1-yl-anilino)-1,2,4-triazol-1-yl]benzonitrile] here?
A: 1 to 10

Q: What about the fold induction at 10 µM of the same compound?
A: ≤ 1

Q: Which fold induction at 1 µM does the source give for `NC1CN(c2cc(F)cc(Nc3ncn(-c4ccc(F)cc4F)n3)c2)C1` [Compound 283, N-[3-(3-aminoazetidin-1-yl)-5-fluoro-phenyl]-1-(2,4-difluorophenyl)-1,2,4-triazol-3-amine] here?
A: ≤ 1

Q: What about the fold induction at 10 µM of the same compound?
A: ≤ 1

Q: `Cc1cc(Nc2ncn(-c3cc(F)cc(F)c3)n2)cc(N2CCC(N3CCOCC3)C2)c1` (stereo not shown) [Compound 284, 1-(3,5-difluorophenyl)-N-[3-methyl-5-(3-morpholinopyrrolidin-1-yl)phenyl]-1,2,4-triazol-3-amine] was tested. Which fold induction at 1 µM did it give?
A: 1 to 10

Q: And the fold induction at 10 µM?
A: 1 to 10

Q: Which fold induction at 1 µM does the source give for `CC(C)Oc1cc(F)cc(-n2cnc(Nc3cc(C4CC4)cc(N4CCN(C5COC5)CC4)c3)n2)c1` [Compound 285, N-[3-cyclopropyl-5-[4-(oxetan-3-yl)piperazin-1-yl]phenyl]-1-(3-fluoro-5-isopropoxy-phenyl)-1,2,4-triazol-3-amine] here?
A: 1 to 10

Q: What about the fold induction at 10 µM of the same compound?
A: 10 to 100

Q: With `CCOc1nccc(-n2cnc(Nc3cc(C4CC4)cc(N4CCN(C5COC5)CC4)c3)n2)n1` [Compound 286, N-[3-cyclopropyl-5-[4-(oxetan-3-yl)piperazin-1-yl]phenyl]-1-(2-ethoxypyrimidin-4-yl)-1,2,4-triazol-3-amine] as the compound, how does the fold induction at 1 µM read?
A: 100 to 1000

Q: And the fold induction at 10 µM?
A: 100 to 1000

Q: With `Cc1cc(Nc2ncn(-c3cccc(C(F)(F)F)c3)n2)cc(N2CCN(C3COC3)CC2)c1` [Compound 287, N-[3-methyl-5-[4-(oxetan-3-yl)piperazin-1-yl]phenyl]-1-[3-(trifluoromethyl)phenyl]-1,2,4-triazol-3-amine] as the compound, how does the fold induction at 1 µM read?
A: 100 to 1000

Q: What about the fold induction at 10 µM of the same compound?
A: 100 to 1000

Q: `CC(C)(C)c1cc(Nc2ncn(-c3cnccn3)n2)cc(N2CCN(C3COC3)CC2)c1` [Compound 288, N-[3-tert-butyl-5-[4-(oxetan-3-yl)piperazin-1-yl]phenyl]-1-pyrazin-2-yl-1,2,4-triazol-3-amine] was tested. Which fold induction at 1 µM did it give?
A: 1000 to 10000

Q: What about the fold induction at 10 µM of the same compound?
A: 1000 to 10000

Q: With `Cc1cc(Nc2ncn(-c3ccccc3)n2)cc(N2CCN(C3CCOCC3)CC2)c1` [Compound 289, N-[3-methyl-5-(4-tetrahydropyran-4-ylpiperazin-1-yl)phenyl]-1-phenyl-1,2,4-triazol-3-amine] as the compound, how does the fold induction at 1 µM read?
A: 1000 to 10000

Q: And the fold induction at 10 µM?
A: 1 to 10

Q: With `Cc1cc(Nc2ncn(-c3ccccc3)n2)cc(N2CCN(C3CCC3)CC2)c1` [Compound 290, N-[3-(4-cyclobutylpiperazin-1-yl)-5-methyl-phenyl]-1-phenyl-1,2,4-triazol-3-amine] as the compound, how does the fold induction at 1 µM read?
A: 1000 to 10000

Q: What about the fold induction at 10 µM of the same compound?
A: 1000 to 10000

Q: `Cc1cc(Nc2ncn(-c3ncncc3F)n2)cc(N2CCN(C3COC3)CC2)c1` [Compound 291, 1-(5-fluoropyrimidin-4-yl)-N-[3-methyl-5-[4-(oxetan-3-yl)piperazin-1-yl]phenyl]-1,2,4-triazol-3-amine] was tested. Which fold induction at 1 µM did it give?
A: ≤ 1

Q: And the fold induction at 10 µM?
A: 1 to 10

Q: What does the source list for `Cc1cc(Nc2ncn(-c3ccccc3)n2)cc(N2C[C@@H]3C[C@H]2CN3C2CC2)c1` [Compound 292, N-[3-[(1S,4S)-2-cyclopropyl-2,5-diazabicyclo[2.2.1]heptan-5-yl]-5-methyl-phenyl]-1-phenyl-1,2,4-triazol-3-amine]?
A: fold induction at 1 µM: 100 to 1000; fold induction at 10 µM: 10 to 100

Q: Which results are given for `COC1CCCN(c2cc(C)cc(Nc3ncn(-c4cc(F)cc(F)c4)n3)c2)C1` (stereo not shown) [Compound 293, 1-(3,5-difluorophenyl)-N-[3-(3-methoxy-1-piperidyl)-5-methyl-phenyl]-1,2,4-triazol-3-amine]?
A: fold induction at 1 µM: 10 to 100; fold induction at 10 µM: 10 to 100

Q: Which fold induction at 1 µM does the source give for `Cc1cc(Nc2ncn(-c3ccccc3)n2)cc(C2CCN(C3(C)COC3)CC2)c1` [Compound 294, N-[3-methyl-5-[1-(3-methyloxetan-3-yl)-4-piperidyl]phenyl]-1-phenyl-1,2,4-triazol-3-amine] here?
A: 1000 to 10000

Q: What about the fold induction at 10 µM of the same compound?
A: 1000 to 10000

Q: What does the source list for `Cc1cc(Nc2ncn(-c3cc(F)cc(F)c3)n2)cc(C2CNC(=O)O2)c1` (stereo not shown) [Compound 295, 5-[3-[[1-(3,5-difluorophenyl)-1,2,4-triazol-3-yl]amino]-5-methyl-phenyl]oxazolidin-2-one]?
A: fold induction at 1 µM: 10 to 100; fold induction at 10 µM: 1 to 10

Q: What does the source list for `F[C@@H]1CCN(c2cc(Nc3ncn(-c4ccccc4)n3)cc(C3CC3)n2)C1` [Compound 296, 2-cyclopropyl-6-[(3R)-3-fluoropyrrolidin-1-yl]-N-(1-phenyl-1,2,4-triazol-3-yl)pyridin-4-amine]?
A: fold induction at 1 µM: 100 to 1000; fold induction at 10 µM: 10 to 100

Q: Which results are given for `Cc1cc(Nc2ncn(-c3cccnc3)n2)cc(N2CCN(C)CC2)c1` [Compound 297, N-[3-methyl-5-(4-methylpiperazin-1-yl)phenyl]-1-(3-pyridyl)-1,2,4-triazol-3-amine]?
A: fold induction at 1 µM: 10 to 100; fold induction at 10 µM: 10 to 100
